This is an account of results in patent publication US12559492B2, “BRAF degraders” (C4 Therapeutics, Inc., priority 2020, dated 2026).

The DC50 is the concentration giving 50% degradation. The Emax is the size of the effect at its maximum, as opposed to the concentration needed.

This experiment deals with BRAF^V600E protein (Homo sapiens, UniProt P15056, V600E). Put plainly: HiBiT cellular BRAF V600E degradation assay. The class given is cell-based. The note with it: 24 h incubation; for DC50: A375.10 cells (HiBiT tag knocked in at N-terminal of BRAF V600E), concentration at which 50% of total cellular BRAF V600E is degraded; for Emax: A375.10 cells, Emax = amount of residual protein remaining in the cell after compound treatment, read-out: HiBit 24 h Emax. The text has this: DMEM no-phenol red medium supplemented with L-glutamine was purchased from (Corning). Fetal bovine serum (FBS) was purchased from Gibco (Grand Island, NY, USA). Nano-Glo® HiBiT Lytic Assay Buffer & Reagents were purchased from Promega (Madison, WI, USA). […] Cell culture flasks and 384-well black flat-bottom polystyrene TC-treated microplates were acquired from Corning (Corning, NY, USA).
HiBiT Cellular BRAFv^600E Degradation Assay
Prior to the assay, the A375.10 cell line is maintained in DMEM no-phenol red medium supplemented with 10% fetal bovine serum (FBS). […] Briefly, test compounds were added to the 384-well plate from a top concentration of 10 μM with 11 half log dilutions of compound, plated in duplicate. Then, 30 uL of a suspension of A375.10 cell lines was dispensed into columns 1-24 of the 384-well plates at a cell density of 7500 cells per well. The plates were kept at 37° C. with 5% CO2 for the duration of the assay (6 or 24 hr). After the desired incubation time with compound, 30 uL of Nano-Glo® HiBiT Lytic Buffer containing LgBiT protein (diluted 1:100) and luminescence substrate (diluted 1:50) were added to the cells in columns 1-23 of the assay plate. The plate was the incubated for 30 min on the bench at room temperature. Finally, HiBiT luminescence signal was acquired on EnVision™ Multilabel Reader (PerkinElmer, Santa Clara, CA, USA).
Quantification of luminescence responses measured in the presence of compound were normalized to a high signal/no degradation control (untreated cells+lytic detection reagent) and a low signal/full degradation control (untreated cells, no lytic detection reagent). Data were analyzed with a 4-parameter logistic fit to generate sigmoidal dose-response curves. […] The Emax, or maximum effect of each compound, represents the amount of residual protein remaining in the cell following compound treatment.

Structures are written as SMILES.

Chain of BRAF^V600E protein (P15056 whole entry V600E): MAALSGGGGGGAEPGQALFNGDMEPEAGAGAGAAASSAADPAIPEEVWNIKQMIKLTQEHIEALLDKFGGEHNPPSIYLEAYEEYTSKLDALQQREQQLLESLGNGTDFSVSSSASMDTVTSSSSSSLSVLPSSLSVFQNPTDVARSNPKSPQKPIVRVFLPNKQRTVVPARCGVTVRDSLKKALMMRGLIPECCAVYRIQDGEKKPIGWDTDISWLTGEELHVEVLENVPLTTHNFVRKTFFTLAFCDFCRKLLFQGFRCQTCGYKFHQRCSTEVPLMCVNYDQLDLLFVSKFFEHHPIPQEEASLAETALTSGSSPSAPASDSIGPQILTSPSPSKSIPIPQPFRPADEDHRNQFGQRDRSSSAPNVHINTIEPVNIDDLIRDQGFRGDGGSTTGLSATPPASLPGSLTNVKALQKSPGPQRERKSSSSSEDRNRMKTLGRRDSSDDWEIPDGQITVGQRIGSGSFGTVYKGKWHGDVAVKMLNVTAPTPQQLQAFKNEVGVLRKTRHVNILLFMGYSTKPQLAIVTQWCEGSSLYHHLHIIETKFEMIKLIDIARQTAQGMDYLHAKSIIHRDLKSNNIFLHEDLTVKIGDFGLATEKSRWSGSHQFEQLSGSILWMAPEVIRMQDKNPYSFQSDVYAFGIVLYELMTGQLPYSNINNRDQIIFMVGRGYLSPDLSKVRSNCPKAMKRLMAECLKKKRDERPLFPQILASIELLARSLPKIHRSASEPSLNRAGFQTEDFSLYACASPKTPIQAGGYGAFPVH

`CCN(C)S(=O)(=O)Nc1ccc(F)c(C(=O)c2c[nH]c3ncc(-c4cnc(N5CCN(C(=O)CN6CCC(c7ccc(N[C@H]8CCC(=O)NC8=O)cc7)CC6)CC5)nc4)cc23)c1F` [Example 25, 5-[2-[4-[2-[4-[4-[[(3S)-2,6-dioxo-3-piperidyl]amino]phenyl]-1-piperidyl]acetyl]piperazin-1-yl]pyrimidin-5-yl]-3-[3-[[ethyl(methyl)sulfamoyl]amino]-2,6-difluoro-benzoyl]-1H-pyrrolo[2,3-b]pyridine]: half-maximal degradation (DC50) was put at 3.63 nM and the Emax was 6.36%.
The corresponding values for `CCN(C)S(=O)(=O)Nc1ccc(F)c(C(=O)c2c[nH]c3ncc(-c4cnc(N5CCN(C(=O)CN6CCC(c7ccc(N[C@@H]8CCC(=O)NC8=O)cc7)CC6)CC5)nc4)cc23)c1F` [Example 26, 5-[2-[4-[2-[4-[4-[[(3R)-2,6-dioxo-3-piperidyl]amino]phenyl]-1-piperidyl]acetyl]piperazin-1-yl]pyrimidin-5-yl]-3-[3-[[ethyl(methyl)sulfamoyl]amino]-2,6-difluoro-benzoyl]-1H-pyrrolo[2,3-b]pyridine] are 4.55 nM and 7%.
On to `CCN(C)S(=O)(=O)Nc1ccc(F)c(C(=O)c2c[nH]c3ncc(-c4cnc(N5CCN(C(=O)CN6CCC(c7ccc8c(C9CCC(=O)NC9=O)nn(C)c8c7)CC6)CC5)nc4)cc23)c1F` (stereo not drawn) [Example 27, 3-(2,6-dioxo-3-piperidyl)-6-[1-[2-[4-[5-[3-[3-[[ethyl(methyl)sulfamoyl]amino]-2,6-difluoro-benzoyl]-1H-pyrrolo[2,3-b]pyridin-5-yl]pyrimidin-2-yl]piperazin-1-yl]-2-oxo-ethyl]-4-piperidyl]-1-methyl-indazole], for which the DC50 stood at 2.09 nM and the Emax was found to be 10.8%.
For the compound `CCN(C)S(=O)(=O)Nc1ccc(F)c(C(=O)c2c[nH]c3ncc(-c4cnc(N5CCN(C(=O)CN6CCC(Nc7ccc8c(C9CCC(=O)NC9=O)nn(C)c8c7)CC6)CC5)nc4)cc23)c1F` (stereo not drawn) [Example 28, 3-(2,6-dioxo-3-piperidyl)-6-[[1-[2-[4-[5-[3-[3-[[ethyl(methyl)sulfamoyl]amino]-2,6-difluoro-benzoyl]-1H-pyrrolo[2,3-b]pyridin-5-yl]pyrimidin-2-yl]piperazin-1-yl]-2-oxo-ethyl]-4-piperidyl]amino]-1-methyl-indazole], the DC50 was 5.81 nM and the maximal effect (Emax) was determined as 12%.
The matching figures for `CCN(C)S(=O)(=O)Nc1ccc(F)c(C(=O)c2c[nH]c3ncc(-c4cnc(N5CCN(C(=O)CN6CCC(c7ccc(NC8CCC(=O)NC8=O)c(F)c7)CC6)CC5)nc4)cc23)c1F` (stereo not drawn) [Example 29, 5-[2-[4-[2-[4-[4-[(2,6-dioxo-3-piperidyl)amino]-3-fluoro-phenyl]-1-piperidyl]acetyl]piperazin-1-yl]pyrimidin-5-yl]-3-[3-[[ethyl(methyl)sulfamoyl]amino]-2,6-difluoro-benzoyl]-1H-pyrrolo[2,3-b]pyridine]: 2.76 nM and 7.67%.
As for `CCN(C)S(=O)(=O)Nc1ccc(F)c(C(=O)c2c[nH]c3ncc(-c4cnc(N5CCN(C(=O)CN6CCC(c7ccc(NC8CCC(=O)NC8=O)cc7)C(F)(F)C6)CC5)nc4)cc23)c1F` (stereo not drawn) [Example 30, 5-[2-[4-[2-[4-[4-[(2,6-dioxo-3-piperidyl)amino]phenyl]-3,3-difluoro-1-piperidyl]acetyl]piperazin-1-yl]pyrimidin-5-yl]-3-[3-[[ethyl(methyl)sulfamoyl]amino]-2,6-difluoro-benzoyl]-1H-pyrrolo[2,3-b]pyridine], half-maximal degradation (DC50) was put at 4.27 nM and the Emax is 7.84%.
The corresponding values for `CCN(C)S(=O)(=O)Nc1ccc(F)c(C(=O)c2c[nH]c3ncc(-c4cnc(N5CCN(C(=O)CC6CCN(c7ccc(NC8CCC(=O)NC8=O)cc7)CC6)CC5)nc4)cc23)c1F` (stereo not drawn) [Example 31, 5-[2-[4-[2-[1-[4-[(2,6-dioxo-3-piperidyl)amino]phenyl]-4-piperidyl]acetyl]piperazin-1-yl]pyrimidin-5-yl]-3-[3-[[ethyl(methyl)sulfamoyl]amino]-2,6-difluoro-benzoyl]-1H-pyrrolo[2,3-b]pyridine] are 30 nM and 21.2%.
The matching figures for `CCN(C)S(=O)(=O)Nc1ccc(F)c(C(=O)c2c[nH]c3ncc(-c4cnc(N5CCN(C(=O)CN6CCC(c7ccc(CN8CCC(=O)NC8=O)cc7)CC6)CC5)nc4)cc23)c1F` [Example 32, 5-[2-[4-[2-[4-[4-[(2,4-dioxohexahydropyrimidin-1-yl)methyl]phenyl]-1-piperidyl]acetyl]piperazin-1-yl]pyrimidin-5-yl]-3-[3-[[ethyl(methyl)sulfamoyl]amino]-2,6-difluoro-benzoyl]-1H-pyrrolo[2,3-b]pyridine]: 35 nM and 10.6%.
As to `CCN(C)S(=O)(=O)Nc1ccc(F)c(C(=O)c2c[nH]c3ncc(-c4cnc(N5CCN(C(=O)CN6CCC(c7ccc8c(c7)n(C)c(=O)n8C7CCC(=O)NC7=O)CC6)CC5)nc4)cc23)c1F` (stereo not drawn) [Example 33, 1-(2,6-dioxo-3-piperidyl)-5-[1-[2-[4-[5-[3-[3-[[ethyl(methyl)sulfamoyl]amino]-2,6-difluoro-benzoyl]-1H-pyrrolo[2,3-b]pyridin-5-yl]pyrimidin-2-yl]piperazin-1-yl]-2-oxo-ethyl]-4-piperidyl]-3-methyl-2-oxo-benzimidazole], it took 2.51 nM to reach half-maximal degradation (DC50) and the Emax is 19.2%.
`CCN(C)S(=O)(=O)Nc1ccc(F)c(C(=O)c2c[nH]c3ncc(-c4cnc(N5CCN(C(=O)CN6CCC(c7ccc8c(N9CCC(=O)NC9=O)nn(C)c8c7)CC6)CC5)nc4)cc23)c1F` [Example 34, 3-(2,4-dioxohexahydropyrimidin-1-yl)-6-[1-[2-[4-[5-[3-[3-[[ethyl(methyl)sulfamoyl]amino]-2,6-difluoro-benzoyl]-1H-pyrrolo[2,3-b]pyridin-5-yl]pyrimidin-2-yl]piperazin-1-yl]-2-oxo-ethyl]-4-piperidyl]-1-methyl-indazole]: the DC50 came to 2.52 nM and the Emax worked out at 8.14%.
The matching figures for `CCN(C)S(=O)(=O)Nc1ccc(F)c(C(=O)c2c[nH]c3ncc(-c4cnc(N5CCN(C(=O)CN6CCC(N7CCN(C8CCC(=O)NC8=O)C(=O)C7)CC6)CC5)nc4)cc23)c1F` (stereo not drawn) [Example 37, 5-[2-[4-[2-[4-[4-(2,6-dioxo-3-piperidyl)-3-oxo-piperazin-1-yl]-1-piperidyl]acetyl]piperazin-1-yl]pyrimidin-5-yl]-3-[3-[[ethyl(methyl)sulfamoyl]amino]-2,6-difluoro-benzoyl]-1H-pyrrolo[2,3-b]pyridine]: 17.2 nM and 9.14%.
In the case of `CCN(C)S(=O)(=O)Nc1ccc(F)c(C(=O)c2c[nH]c3ncc(-c4cnc(N5CCN(C(=O)CC6(O)CCN(c7ccc(NC8CCC(=O)NC8=O)cc7)CC6)CC5)nc4)cc23)c1F` (stereo not drawn) [Example 38, 5-[2-[4-[2-[1-[4-[(2,6-dioxo-3-piperidyl)amino]phenyl]-4-hydroxy-4-piperidyl]acetyl]piperazin-1-yl]pyrimidin-5-yl]-3-[3-[[ethyl(methyl)sulfamoyl]amino]-2,6-difluoro-benzoyl]-1H-pyrrolo[2,3-b]pyridine], the DC50 was determined as 4.44 nM and the Emax was 13.4%.
The corresponding values for `CCN(C)S(=O)(=O)Nc1ccc(F)c(C(=O)c2c[nH]c3ncc(-c4cnc(N5CCN(C(=O)CN6CCC(c7ccc(NC8CCC(=O)NC8=O)cc7C(F)F)CC6)CC5)nc4)cc23)c1F` (stereo not drawn) [Example 39, 5-[2-[4-[2-[4-[2-(difluoromethyl)-4-[(2,6-dioxo-3-piperidyl)amino]phenyl]-1-piperidyl]acetyl]piperazin-1-yl]pyrimidin-5-yl]-3-[3-[[ethyl(methyl)sulfamoyl]amino]-2,6-difluoro-benzoyl]-1H-pyrrolo[2,3-b]pyridine] are 10.2 nM and 8.74%.
Take `CCN(C)S(=O)(=O)Nc1ccc(F)c(C(=O)c2c[nH]c3ncc(-c4cnc(N5CCN(C(=O)CN6CCC(c7ccc(NC8CCC(=O)NC8=O)cc7C#N)CC6)CC5)nc4)cc23)c1F` (stereo not drawn) [Example 40, 5-[2-[4-[2-[4-[2-cyano-4-[(2,6-dioxo-3-piperidyl)amino]phenyl]-1-piperidyl]acetyl]piperazin-1-yl]pyrimidin-5-yl]-3-[3-[[ethyl(methyl)sulfamoyl]amino]-2,6-difluoro-benzoyl]-1H-pyrrolo[2,3-b]pyridine]: half-maximal degradation (DC50) was put at 11.7 nM and the Emax came to 8.42%.
The corresponding values for `CCN(C)S(=O)(=O)Nc1ccc(F)c(C(=O)c2c[nH]c3ncc(-c4cnc(N5CCN(C(=O)CN6CCC(c7c(F)cc(OC8CCC(=O)NC8=O)cc7F)CC6)CC5)nc4)cc23)c1F` (stereo not drawn) [Example 41, 5-[2-[4-[2-[4-[4-[(2,6-dioxo-3-piperidyl)oxy]-2,6-difluoro-phenyl]-1-piperidyl]acetyl]piperazin-1-yl]pyrimidin-5-yl]-3-[3-[[ethyl(methyl)sulfamoyl]amino]-2,6-difluoro-benzoyl]-1H-pyrrolo[2,3-b]pyridine] are 24.5 nM and 9.48%.
